Experimental data as given in ChEMBL document CHEMBL1201862, “PubChem BioAssay data set” (2004).
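Assay format: 96-well plates, 48-hour exposure. Abbreviation: GI50, concentration required for 50% inhibition of growth.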 Active and inactive are the calls of the source. Cut-off read from the data, not from the text of the source: active = GI50 up to about 1.1 µM and inactive = higher.

Tests used:
Test in all cases: NCI tumour cell line growth inhibition, 48 h
UACC-257 = tested on: UACC-257
SK-OV-3 = tested on: SK-OV-3
NCI-H226 = tested on: NCI-H226
COLO 205 = tested on: COLO 205
EKVX = tested on: EKVX
RXF 393 = tested on: RXF 393
ACHN = tested on: ACHN
MOLT-4 = tested on: MOLT-4
SK-MEL-28 = tested on: SK-MEL-28
SK-MEL-2 = tested on: SK-MEL-2
OVCAR-5 = tested on: OVCAR-5
HT-29 = tested on: HT-29
HCT-116 = tested on: HCT-116
IGROV-1 = tested on: IGROV-1
NCI-H522 = tested on: NCI-H522
U-251 = tested on: U-251
Malme-3M = tested on: Malme-3M
HL-60 = tested on: HL-60
MCF7 = tested on: MCF7

| SMILES | GI50 (UACC-257) | GI50 (SK-OV-3) | GI50 (NCI-H226) | GI50 (COLO 205) | GI50 (EKVX) | GI50 (RXF 393) | GI50 (ACHN) | GI50 (MOLT-4) | GI50 (SK-MEL-28) | GI50 (SK-MEL-2) | GI50 (OVCAR-5) | GI50 (HT-29) | GI50 (HCT-116) | GI50 (IGROV-1) | GI50 (NCI-H522) | GI50 (U-251) | GI50 (Malme-3M) | GI50 (HL-60) | GI50 (MCF7) |
| --- | --- | --- | --- | --- | --- | --- | --- | --- | --- | --- | --- | --- | --- | --- | --- | --- | --- | --- | --- |
| O=c1[nH]c(-c2ccccc2)nc2cc([N+](=O)[O-])c(/C(Cl)=C/c3ccccc3)cc12 | 16.1 µM (inactive) | 27.3 µM (inactive) | > 100 µM (inactive) | 21.5 µM (inactive) | 46.5 µM (inactive) | 14.4 µM (inactive) | 68.2 µM (inactive) | 50.8 µM (inactive) | 26.2 µM (inactive) | 21.9 µM (inactive) | > 100 µM (inactive) | > 10 µM (inactive) | 21 µM (inactive) | 55 µM (inactive) | 17.3 µM (inactive) | 28.6 µM (inactive) | 24.3 µM (inactive) |  |  |
| O=[N+]([O-])c1ccc(C2=Nc3ccccc3SC(c3ccccc3)C2)cc1 (stereo unspecified) | 26.2 µM (inactive) | 21 µM (inactive) | 21.7 µM (inactive) | 17.5 µM (inactive) | 16.6 µM (inactive) | 24.6 µM (inactive) | 18.2 µM (inactive) | 15.1 µM (inactive) | 21.3 µM (inactive) | 18.4 µM (inactive) | 19.5 µM (inactive) |  | 11.9 µM (inactive) | 16 µM (inactive) | 13.4 µM (inactive) | 13.1 µM (inactive) |  | 16.5 µM (inactive) |  |
| Nc1n[nH]c(CCCCCCCc2nnc(N)[nH]2)n1 | > 100 µM (inactive) | > 100 µM (inactive) |  |  | > 100 µM (inactive) | > 100 µM (inactive) | > 100 µM (inactive) | > 100 µM (inactive) | > 100 µM (inactive) | > 100 µM (inactive) | > 100 µM (inactive) | > 100 µM (inactive) | > 100 µM (inactive) |  | > 100 µM (inactive) | > 100 µM (inactive) | > 100 µM (inactive) | > 100 µM (inactive) |  |
| Cc1cc2c(cc1C)[n+]([O-])c(C(=O)/C=C/c1ccc(Cl)cc1)c(C)[n+]2[O-] | 27.3 µM (inactive) | 34.7 µM (inactive) | > 100 µM (inactive) | 20.5 µM (inactive) | 55 µM (inactive) |  | 25.5 µM (inactive) | 23.8 µM (inactive) | 23.2 µM (inactive) | 29.5 µM (inactive) | 42.3 µM (inactive) | 30.3 µM (inactive) |  | 24.5 µM (inactive) | 19.4 µM (inactive) | 26.8 µM (inactive) | 38.5 µM (inactive) | 24 µM (inactive) |  |
| COC(=O)/C=C(\C)CCC1SC1(C)C (stereo unspecified) | > 100 µM (inactive) | > 100 µM (inactive) | > 100 µM (inactive) | > 100 µM (inactive) | > 100 µM (inactive) | > 100 µM (inactive) | > 100 µM (inactive) | > 100 µM (inactive) | > 100 µM (inactive) | > 100 µM (inactive) | > 100 µM (inactive) | > 100 µM (inactive) | > 100 µM (inactive) | > 100 µM (inactive) | > 100 µM (inactive) | > 100 µM (inactive) | > 100 µM (inactive) | > 100 µM (inactive) |  |
| COc1ccc(/C(Cl)=C(\C=O)c2ccc(OC)cc2)cc1 | 72.4 µM (inactive) | > 100 µM (inactive) | > 100 µM (inactive) |  | > 100 µM (inactive) | > 100 µM (inactive) | 84.3 µM (inactive) | 7 µM (inactive) |  | > 100 µM (inactive) | > 100 µM (inactive) | > 100 µM (inactive) | 61.9 µM (inactive) | > 100 µM (inactive) | 18.3 µM (inactive) | 70.8 µM (inactive) | > 100 µM (inactive) | 15.9 µM (inactive) |  |
| CC1OC(O)CC(OC(=O)c2ccccc2)C1OC(=O)c1ccccc1 (stereo unspecified) | 15.3 µM (inactive) |  |  | 27 µM (inactive) |  | 18.8 µM (inactive) | 18.2 µM (inactive) | 13.9 µM (inactive) | 16.1 µM (inactive) |  | > 100 µM (inactive) | 21.6 µM (inactive) | 11.3 µM (inactive) | 12.4 µM (inactive) | > 100 µM (inactive) | 30.1 µM (inactive) | 16.6 µM (inactive) | 13.6 µM (inactive) |  |
| CCOCCOc1ccc(OCCOCC)cc1 | 17.5 µM (inactive) | > 81.8 µM (inactive) | 31.9 µM (inactive) | 15.9 µM (inactive) |  | 18.1 µM (inactive) |  | 7.71 µM (inactive) | 20.3 µM (inactive) | > 43 µM (inactive) | > 100 µM (inactive) | 16.9 µM (inactive) | 17.2 µM (inactive) | 20 µM (inactive) |  | 34 µM (inactive) | 13.4 µM (inactive) | 3.4 µM (inactive) | 14 µM (inactive) |
| O=C(Nc1ccccc1Br)c1cccc([N+](=O)[O-])c1O | 2.01 µM (inactive) | 3.95 µM (inactive) | 3.3 µM (inactive) | 3.66 µM (inactive) | 3.04 µM (inactive) | 1.86 µM (inactive) | 3.67 µM (inactive) | 2.26 µM (inactive) | 4.37 µM (inactive) | 6.9 µM (inactive) | 5.13 µM (inactive) | 4.73 µM (inactive) | 3.84 µM (inactive) | 2.88 µM (inactive) | 2.03 µM (inactive) | 2.85 µM (inactive) | 2.48 µM (inactive) | 2.9 µM (inactive) |  |
| CCOC(=O)NC(=O)c1cn(CC(=O)NCC(=O)NCC(=O)N2CCN(CCn3c(C)nc(C(N)=O)c3N)CC2)c(=O)[nH]c1=O | > 100 µM (inactive) | > 100 µM (inactive) |  | > 100 µM (inactive) |  |  | > 100 µM (inactive) | > 100 µM (inactive) | > 100 µM (inactive) | > 100 µM (inactive) |  | > 100 µM (inactive) | > 100 µM (inactive) | > 100 µM (inactive) |  | > 100 µM (inactive) | > 100 µM (inactive) | > 100 µM (inactive) |  |
| NC(=O)c1ccccc1NC(=O)C(=O)C(C(=O)c1ccc2ccccc2c1)C1OC(=O)c2ccccc21 (stereo unspecified) | 13.3 µM (inactive) | 14.6 µM (inactive) | 2.85 µM (inactive) | 11.7 µM (inactive) | 26.5 µM (inactive) | 2.09 µM (inactive) | > 100 µM (inactive) | 3.49 µM (inactive) | 7.23 µM (inactive) | 14.8 µM (inactive) | 24 µM (inactive) | 27.8 µM (inactive) | 9.71 µM (inactive) | 14.8 µM (inactive) | 14 µM (inactive) | 4.86 µM (inactive) | 10.4 µM (inactive) |  |  |
| CN(C)C(=O)C1CCC(=C2C(=O)OC(C)(C)OC2=O)N1C (stereo unspecified) | > 100 µM (inactive) | > 100 µM (inactive) | > 100 µM (inactive) | > 100 µM (inactive) | > 100 µM (inactive) | > 100 µM (inactive) | > 100 µM (inactive) | > 100 µM (inactive) | > 100 µM (inactive) | > 100 µM (inactive) | > 100 µM (inactive) | > 100 µM (inactive) | > 100 µM (inactive) | > 100 µM (inactive) | > 100 µM (inactive) | > 100 µM (inactive) | > 100 µM (inactive) |  |  |
| CC(=O)OC1=C2CC3(C)OC(=O)CC(C)(C)C3=CC=C2C=C(C(C)C)C1=O (stereo unspecified) | 0.49 µM (active) | 2.09 µM (inactive) | 1.74 µM (inactive) | 0.631 µM (active) | 1.89 µM (inactive) | 0.184 µM (active) | 0.518 µM (active) | 0.294 µM (active) | 0.456 µM (active) | 0.459 µM (active) | 0.912 µM (active) | 1.07 µM (active) | 0.41 µM (active) | 0.845 µM (active) | 0.189 µM (active) | 1.6 µM (inactive) | 0.356 µM (active) | 0.28 µM (active) |  |
| O=CCCn1[nH]c(=O)ccc1=O | > 100 µM (inactive) |  | > 100 µM (inactive) |  | > 100 µM (inactive) | > 100 µM (inactive) | > 100 µM (inactive) | > 100 µM (inactive) | > 100 µM (inactive) | > 100 µM (inactive) | > 100 µM (inactive) | > 100 µM (inactive) | > 100 µM (inactive) | > 100 µM (inactive) |  | > 100 µM (inactive) | > 100 µM (inactive) | > 100 µM (inactive) |  |
| CCc1ccc(Nc2cc(=O)[nH]c(=S)n2C)cc1 | > 100 µM (inactive) | > 100 µM (inactive) | > 100 µM (inactive) | > 100 µM (inactive) | 88.3 µM (inactive) | > 100 µM (inactive) |  | > 100 µM (inactive) |  | > 100 µM (inactive) | > 100 µM (inactive) | > 100 µM (inactive) | > 100 µM (inactive) | > 100 µM (inactive) | > 100 µM (inactive) | > 100 µM (inactive) | > 100 µM (inactive) | > 100 µM (inactive) |  |
| CNc1ccccc1-c1nc2ccccc2c(=O)o1 | > 100 µM (inactive) | > 100 µM (inactive) | > 100 µM (inactive) | > 100 µM (inactive) | > 100 µM (inactive) |  | > 100 µM (inactive) | > 100 µM (inactive) | > 100 µM (inactive) | > 100 µM (inactive) | > 100 µM (inactive) |  | > 100 µM (inactive) | 74.1 µM (inactive) |  | > 100 µM (inactive) | > 100 µM (inactive) | > 100 µM (inactive) |  |
| COC(=O)c1ccc(/C=C2\N=C(C)OC2=O)cc1 |  | > 100 µM (inactive) | > 100 µM (inactive) | > 100 µM (inactive) | > 100 µM (inactive) |  | > 100 µM (inactive) | > 100 µM (inactive) | > 100 µM (inactive) |  | > 100 µM (inactive) | > 100 µM (inactive) | > 100 µM (inactive) | > 100 µM (inactive) | 59 µM (inactive) | > 100 µM (inactive) |  | > 100 µM (inactive) |  |
